Assay results as given in the supplement of paper PMC13380429.

Experiments:
Settings in all cases: 72 h
Caco-2 [1] = assay: cell viability relative to DMSO; higher = less toxic
Calu-3 [2] = assay: as above
HepG2 [3] = assay: as above
U2OS [4] = assay: as above
Vero E6 [5] = assay: as above
Caco-2 [6] = assay: relative viability EC50 (midpoint between 100% and the lowest measured viability); higher = less toxic
Calu-3 [7] = assay: as above
HepG2 [8] = assay: as above
U2OS [9] = assay: as above
Vero E6 [10] = assay: as above
Caco-2 [11] = assay: drug sensitivity score (DSS) for viability; higher = more toxic; extreme values may be limits of the assay
Calu-3 [12] = assay: as above
HepG2 [13] = assay: as above
U2OS [14] = assay: as above
Vero E6 [15] = assay: as above

| Compound | cell viability (Caco-2 [1]; 1 nM) [%] | cell viability (Caco-2 [1]; 10 nM) [%] | cell viability (Caco-2 [1]; 100 nM) [%] | cell viability (Caco-2 [1]; 1000 nM) [%] | cell viability (Caco-2 [1]; 10000 nM) [%] | cell viability (Calu-3 [2]; 1 nM) [%] | cell viability (Calu-3 [2]; 10 nM) [%] | cell viability (Calu-3 [2]; 100 nM) [%] | cell viability (Calu-3 [2]; 1000 nM) [%] | cell viability (Calu-3 [2]; 10000 nM) [%] | cell viability (HepG2 [3]; 1 nM) [%] | cell viability (HepG2 [3]; 10 nM) [%] | cell viability (HepG2 [3]; 100 nM) [%] | cell viability (HepG2 [3]; 1000 nM) [%] | cell viability (HepG2 [3]; 10000 nM) [%] | cell viability (U2OS [4]; 1 nM) [%] | cell viability (U2OS [4]; 10 nM) [%] | cell viability (U2OS [4]; 100 nM) [%] | cell viability (U2OS [4]; 1000 nM) [%] | cell viability (U2OS [4]; 10000 nM) [%] | cell viability (Vero E6 [5]; 1 nM) [%] | cell viability (Vero E6 [5]; 10 nM) [%] | cell viability (Vero E6 [5]; 100 nM) [%] | cell viability (Vero E6 [5]; 1000 nM) [%] | cell viability (Vero E6 [5]; 10000 nM) [%] | relative viability EC50 (Caco-2 [6]) [µM] | relative viability EC50 (Calu-3 [7]) [µM] | relative viability EC50 (HepG2 [8]) [µM] | relative viability EC50 (U2OS [9]) [µM] | relative viability EC50 (Vero E6 [10]) [µM] | drug sensitivity score (Caco-2 [11]) | drug sensitivity score (Calu-3 [12]) | drug sensitivity score (HepG2 [13]) | drug sensitivity score (U2OS [14]) | drug sensitivity score (Vero E6 [15]) |
| --- | --- | --- | --- | --- | --- | --- | --- | --- | --- | --- | --- | --- | --- | --- | --- | --- | --- | --- | --- | --- | --- | --- | --- | --- | --- | --- | --- | --- | --- | --- | --- | --- | --- | --- | --- |
| CC(C)C[C@@H](NC(=O)[C@H](C)NC(=O)CNC(=O)[C@@H](NC=O)C(C)C)C(=O)N[C@@H](C)C(=O)N[C@@H](C(=O)N[C@H](C(=O)N[C@@H](C(=O)N[C@@H](Cc1c[nH]c2ccccc12)C(=O)N[C@H](CC(C)C)C(=O)N[C@@H](Cc1c[nH]c2ccccc12)C(=O)N[C@H](CC(C)C)C(=O)N[C@@H](Cc1c[nH]c2ccccc12)C(=O)N[C@H](CC(C)C)C(=O)N[C@@H](Cc1c[nH]c2ccccc12)C(=O)NCCO)C(C)C)C(C)C)C(C)C [gramicidin] | 90 | 118 | 54.6 | 106 | 90.7 | 109 | 94.2 | 87.9 | 95.7 | 42.9 | 101 | 100 | 26.4 | 114 | 121 | 97.5 | 94.3 | 32.4 | 97.4 | 20.3 | 99.2 | 94.3 | 94 | 92.5 | 98.3 | > 10 | 2.55 | > 10 | 0.466 | > 10 | 0 | 3.7 | 0 | 12.3 | 0 |
| N=C(N)NCCN1CCCCCCC1 [guanethidine] | 92.3 | 96.6 | 91 | 91.8 | 101 | 104 | 102 | 99.6 | 95 | 97.3 | 99.3 | 102 | 96.4 | 106 | 93.6 | 102 | 96.6 | 99.7 | 98.8 | 103 | 105 | 97.2 | 95.2 | 109 | 101 | > 10 | > 10 | > 10 | > 10 | > 10 | 0 | 0 | 0 | 0 | 0 |
| N=C(N)NCCSSCCNC(=N)N [guanidinoethyldisulfide-bicarbonate] | 101 | 87.2 | 93.6 | 101 | 91.8 | 99.7 | 106 | 99.9 | 98.6 | 108 | 93 | 101 | 96.4 | 97.9 | 93 | 106 | 96.8 | 100 | 96.8 | 102 | 97.5 | 96.3 | 102 | 96.2 | 91.4 | > 10 | > 10 | > 10 | > 10 | > 10 | 0 | 0 | 0 | 0 | 0 |
| CC1(C)O[C@@H]2C[C@H]3[C@@H]4CCC5=CC(=O)CC[C@]5(C)[C@@]4(F)[C@@H](O)C[C@]3(C)[C@]2(C(=O)CCl)O1 [halcinonide] | 106 | 99.4 | 106 | 99 | 104 | 106 | 98.3 | 96.6 | 100 | 102 | 104 | 98 | 97.7 | 95.8 | 96 | 102 | 103 | 96.7 | 89.6 | 97.6 | 101 | 103 | 97.4 | 98.4 | 98.1 | > 10 | > 10 | > 10 | > 10 | > 10 | 0 | 0 | 0 | 0.1 | 0 |
| CC1(C)S[C@@H]2[C@H](N3C(=O)[C@@H](c4ccccc4)NC3(C)C)C(=O)N2[C@H]1C(=O)O [hetacillin] | 98.3 | 92.7 | 96.8 | 93.4 | 86.4 | 99.4 | 94.3 | 104 | 100 | 113 | 95.6 | 101 | 102 | 110 | 93.8 | 100 | 95.7 | 101 | 95 | 99.5 | 109 | 97.6 | 94.7 | 110 | 90.4 | > 10 | > 10 | > 10 | > 10 | > 10 | 0 | 0 | 0 | 0 | 0 |
| Oc1ccc(C(O)CNCCCCCCNCC(O)c2ccc(O)c(O)c2)cc1O (stereo not given) [hexoprenaline] | 97.3 | 102 | 93.7 | 95.9 | 88.3 | 95.8 | 97.9 | 99.7 | 97.9 | 100 | 103 | 104 | 110 | 93.2 | 103 | 102 | 97.6 | 95.4 | 102 | 95 | 103 | 109 | 99.2 | 101 | 98.7 | > 10 | > 10 | > 10 | > 10 | > 10 | 0 | 0 | 0 | 0 | 0 |
| O=[N+]([O-])/N=C1\NCCN1Cc1ccc(Cl)nc1 [imidacloprid] | 104 | 94.6 | 99.8 | 88.6 | 104 | 103 | 98.5 | 103 | 98.8 | 106 | 98.2 | 109 | 99.7 | 98.9 | 93.1 | 97.4 | 95.7 | 103 | 92.3 | 94.4 | 95.1 | 95.8 | 96.7 | 98 | 96.5 | > 10 | > 10 | > 10 | > 10 | > 10 | 0 | 0 | 0 | 0 | 0 |
| CC1(C)C(/C=C/C=C/C=C/C=C2\N(CCCCS(=O)(=O)O)c3ccc4ccccc4c3C2(C)C)=[N+](CCCCS(=O)(=O)[O-])c2ccc3ccccc3c21 [indocyanine-green] | 98.2 | 87.1 | 105 | 94.8 | 86.9 | 98.6 | 108 | 91.6 | 96 | 88.3 | 93.1 | 89.4 | 106 | 94.9 | 94.5 | 105 | 101 | 97.4 | 99.1 | 95.4 | 96.5 | 99.4 | 102 | 101 | 94.1 | > 10 | > 10 | > 10 | > 10 | > 10 | 0.4 | 0 | 0 | 0 | 0 |
| O=C(O[C@H]1[C@H](OC(=O)c2cccnc2)[C@@H](OC(=O)c2cccnc2)[C@H](OC(=O)c2cccnc2)[C@@H](OC(=O)c2cccnc2)[C@H]1OC(=O)c1cccnc1)c1cccnc1 [inositol-hexanicotinate] | 92.2 | 88.9 | 103 | 89.3 | 91.2 | 102 | 93.3 | 100 | 103 | 110 | 90.9 | 112 | 89.1 | 96.5 | 94.6 | 92.4 | 90.5 | 99 | 98.5 | 99.4 | 105 | 102 | 90.9 | 93.7 | 113 | > 10 | > 10 | > 10 | > 10 | > 10 | 0 | 0 | 0 | 0 | 0 |
| Cc1cc(C)n(-c2cccc([C@H](CC(=O)O)CN3CC[C@@H](CCc4ccc5c(n4)NCCC5)C3)c2)n1 [integrin-antagonist-1] | 104 | 102 | 94.4 | 99 | 105 | 92.1 | 98 | 101 | 96.6 | 98.4 | 107 | 97.8 | 104 | 97.8 | 99.9 | 104 | 95.6 | 104 | 103 | 97.2 | 99.2 | 102 | 105 | 95 | 99.1 | > 10 | > 10 | > 10 | > 10 | > 10 | 0 | 0 | 0 | 0 | 0 |
| O=C(Nc1cnn2ccc(N3CCC[C@@H]3c3cc(F)ccc3F)nc12)N1CC[C@H](O)C1 [larotrectinib] | 93.9 | 92.8 | 85.3 | 101 | 86 | 96.8 | 106 | 94.9 | 94.7 | 112 | 98.1 | 108 | 103 | 105 | 103 | 97.2 | 105 | 97.9 | 98.1 | 99.6 | 97.9 | 94.3 | 101 | 105 | 93.6 | > 10 | > 10 | > 10 | > 10 | > 10 | 0 | 0 | 0 | 0 | 0 |
| CCC/C=C1\OC(=O)C2=C1CCC=C2 [ligustilide] | 100 | 104 | 113 | 122 | 83.6 | 100 | 88.8 | 103 | 101 | 106 | 106 | 106 | 111 | 94.6 | 110 | 96.2 | 101 | 101 | 95.4 | 94.7 | 93.8 | 101 | 102 | 100 | 106 | > 10 | > 10 | > 10 | > 10 | > 10 | 0.1 | 0 | 0 | 0 | 0 |
| N#C/C(=C1/SC[C@@H](c2ccc(Cl)cc2Cl)S1)n1ccnc1 [luliconazole] | 102 | 98.1 | 96.7 | 90.6 | 89.7 | 95.8 | 109 | 96.8 | 95.7 | 89.6 | 104 | 105 | 97.5 | 105 | 96 | 100 | 100 | 98.9 | 96.7 | 96.9 | 101 | 99 | 93.8 | 102 | 94.5 | > 10 | > 10 | > 10 | > 10 | > 10 | 0 | 0 | 0 | 0 | 0 |
